SMILES strings stand for the structures. Inconclusive results are not listed. Calls of active or inactive are those of the source.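 How the source made its calls: active means compounds lowering the luciferase signal with a fitted half-maximal dose at most twice their top valid dose (cut at about 30 µM in these data); inconclusive means flat fits with moderate signal loss, or poor fits; inactive means the rest.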 Where only a bound is given, the exact number is not on record here.

The subject of this test is Clone20 osteoblast Shn3 3'UTR firefly luciferase, 24 h. Put plainly: Schnurri-3 3'UTR-luciferase signal suppressors – cell-based, Clone20 osteoblasts, luminescence, dry powder, set 2, dose response (AID 743417).
With `Cc1cccc(CS(=O)(=O)c2ncc(Cl)c(C(=O)Nc3ccc(F)cc3)n2)c1`, the AC50 is 0.55 µM.

`CC(=O)O[C@H]1CCC2C3CC[C@H]4[C@@H](O)[C@H](O)CC[C@]4(C)C3CC[C@@]21C` (some centres not stated): the AC50 was > 70 µM (inactive).

As to `Cc1cccc2sc(NNC(=O)c3ccc(S(=O)(=O)N4CC(C)CC(C)C4)cc3)nc12` (configuration not stated), the concentration at half-maximal activity (AC50) was 2.57 µM.

For the compound `COc1ccc(S(=O)(=O)N2CCN(C(=O)c3cc(-c4ccc(Br)cc4)n[nH]3)CC2)cc1OC`, the AC50 was 4.55 µM.

`CCOc1ccccc1NC(=O)c1nc(S(=O)(=O)Cc2cccc(C)c2)ncc1Cl`: the AC50 was 0.324 µM.

For `CCOC(=O)c1c(C)[nH]c2c1-c1ccccc1C(=O)C2=O`, the AC50 is 0.496 µM.

For the compound `O=C1C(F)=CC(COC(c2ccccc2)(c2ccccc2)c2ccccc2)OC1n1cc(F)c(=O)[nH]c1=O` (configuration not stated), the AC50 was 0.428 µM.

As for `CSC1SCC2C(=O)N(C)C(C(C)C)C(=O)OCC(NC(=O)c3cnc4ccccc4n3)C(=O)NC(C)C(=O)N(C)C1C(=O)N(C)C(C(C)C)C(=O)OCC(NC(=O)c1cnc3ccccc3n1)C(=O)NC(C)C(=O)N2C` (configuration not stated), the AC50 is below 0.26 µM.

As for `C=C1C(=O)c2sccc2C(c2ccc(OC)c(OC)c2)C1COC(C)=O` (configuration not stated), the AC50 was 0.662 µM.

`CCC1CSC(Nc2ccc(C(=O)/C=C/c3ccc(OC)c(OC)c3)cc2)=N1` (configuration not stated): the AC50 was 4.47 µM.

Take `COc1ccc(C(NC(C)=O)c2cc(Cl)c3cccnc3c2O)cc1` (configuration not stated): the AC50 was 1.61 µM.

Regarding `Cc1ccc(S(=O)(=O)N2CCN(c3ncnc4ccccc34)CC2)cc1`, the concentration at half-maximal activity (AC50) was 1.56 µM.

For the compound `COc1cc(C#Cc2c(-c3cncn3C)n(C)c3ccc(-c4ccc(OC)nc4)cc23)cc(OC)c1`, the AC50 is 20.5 µM.

As for `Nc1ncnc2c1c(-c1ccc(Oc3ccccc3)cc1)cn2C1CCCC1`, the AC50 was 0.658 µM.

With `Cc1ccc(Cl)cc1N1CCN(C(=O)C2CCC(=O)N(C3CCCCCC3)C2)CC1` (configuration not stated), the AC50 is 3.14 µM.

`O=C(N[C@@H]1C/C=C\C[C@@H](CC(=O)N(CCO)Cc2ccccc2)C(=O)NC[C@H](c2ccccc2)OC1=O)OCC1c2ccccc2-c2ccccc21`: the AC50 was 7.04 µM.

As to `CC(C)C(=O)N1CCN(c2ccc(NC(=O)c3ccc([N+](=O)[O-])o3)cc2Cl)CC1`, the half-maximal activity concentration (AC50) is 0.954 µM.

For `c1csc(CNc2ncnc3sccc23)c1`, the AC50 is 1.8 µM.

Regarding `COc1ccc(CCN2CCC(Nc3nc4ccccc4n3Cc3ccc(F)cc3)CC2)cc1`, the AC50 is 3.03 µM.

With `OC(c1cc(-c2ccc(C(F)(F)F)cc2)nc(C(F)(F)F)c1)C1CCCCN1` (configuration not stated), the AC50 is 4.73 µM.

Consider `CCCCOc1ccc(Br)cc1CSC(=N)N`, for which the AC50 was 1.37 µM.

On to `COc1ccc(CC(N)c2csc(NC(=O)Nc3cccc(C(F)(F)F)c3)n2)cc1` (configuration not stated), for which the AC50 is 8.4 µM.

Regarding `CCC(=O)NC(c1ccc(Cl)cc1Cl)c1ccc2cccnc2c1O` (configuration not stated), the AC50 was 1.19 µM.

Turning to `CC1CCC2C(=O)N(c3ccc(Cc4ccncc4)cc3)C(=O)C2C1` (configuration not stated), the half-maximal activity concentration (AC50) is 2.65 µM.

Consider `COc1ccc(COc2ccccc2C(=O)NCc2ccccc2)cc1F`, for which the AC50 is 4.76 µM.

For `C[C@H]1CN=C(N(C)C)N1CC1CCC(C(C)(C)C)CC1` (some centres not stated), the AC50 is 2.27 µM.

Consider `COc1ccc(CNc2ncnc3sccc23)cc1`, for which the AC50 was 1.66 µM.

As for `CC[C@H]1CN2CCc3cc(OC)c(OC)cc3C2C[C@@H]1C[C@H]1NCCc2cc(OC)c(OC)cc21` (some centres not stated), the AC50 is below 0.26 µM.

As to `Cc1ccc(NC(=O)Cc2nn(C)c(=O)c3ccccc23)cc1F`, the AC50 is 0.73 µM.

Take `Cc1ccc(S(=O)(=O)N2C[C@@H]3CCCC[C@@H]3[C@@H](C)[C@H]2c2cn(Cc3ccccc3)c3ncccc23)cc1`: the AC50 was 1.92 µM.

On to `COc1ccccc1-n1cc([C@@H]2C[C@H]3CN(c4ccccc4)C(=O)[C@]34CCCN24)cn1`, for which the concentration at half-maximal activity (AC50) was 1.46 µM.

For the compound `CCCC(=O)OCCNc1cc(Sc2nc3ccccc3[nH]2)c2nonc2c1[N+](=O)[O-]`, the AC50 is 6.63 µM.

With `Cc1cc2c(cc(C(=O)N3CCC(C(=O)NC4CCCC4)CC3)n2Cc2c(F)cccc2Cl)o1`, the AC50 was 4.81 µM.

Regarding `CCOc1cc(N2CCOCC2)c(OCC)cc1NC(=O)c1cc(-c2ccco2)nc2ccccc12`, the AC50 was 8.94 µM.

Take `COc1ccc(CNC(=O)C(C)n2ccc3cc(S(=O)(=O)N4CCCCCC4)ccc32)cc1` (configuration not stated): the AC50 is 0.518 µM.

For `NC(=O)c1ccc(N2CCN(S(=O)(=O)c3cccs3)CC2)c([N+](=O)[O-])c1`, the AC50 was 0.305 µM.

Take `Cc1oc(=O)c(NC(=O)c2ccc(Cl)cc2)cc1C(=O)c1ccccc1`: the AC50 is 32.1 µM.

For `COc1ccc(CNCCC(c2ccc(OC(C)C)cc2)c2ccccc2OC)cc1` (configuration not stated), the AC50 is 3.86 µM.

For `Cc1ccc(-c2nn(C(C)(C)C)c3ncnc(N)c23)cc1`, the AC50 was 5.89 µM.

Turning to `CCC(=O)N1CCN(c2ccc(NC(=O)c3ccc([N+](=O)[O-])o3)cc2Cl)CC1`, the AC50 was 0.85 µM.

Take `CCCCCOC(=O)c1[nH]c2c(c1C)C(=O)CC(c1ccco1)C2` (configuration not stated): the AC50 is 1.49 µM.

Take `COc1ccc(NS(=O)(=O)c2ccc3ccccc3c2)c2ncccc12`: the AC50 is 4.82 µM.

Turning to `CCOc1cc(CNCc2ccccc2)ccc1OCc1ccc(Cl)cc1`, the AC50 was 6.69 µM.

In the case of `COc1ccc(CNCCC(c2ccc(OC(C)C)cc2)c2ccccc2OC)cc1OC` (configuration not stated), the AC50 was 4.35 µM.

For `CCC(CC)CN1C(N(C)C)=NC[C@@H]1CC(C)C`, the AC50 is 0.717 µM.

For `CC(=O)Oc1ccc(OC(C)=O)c(SCCCCCCl)c1`, the AC50 was 2.58 µM.

Consider `Nc1nc(N)c2cc(S(=O)(=O)c3cccc(C(F)(F)F)c3)ccc2n1`, for which the AC50 is 5.22 µM.

With `CC(C)c1nc(SCC(=O)Nc2cccc(C(F)(F)F)c2)c2c(=O)n(C)c(=O)n(C)c2n1`, the AC50 is 2.7 µM.

Take `c1ccc2c(-c3[nH]ncc3CNCCCn3ncc4ccccc43)cccc2c1`: the AC50 was 3.25 µM.

In the case of `CCOC(=O)c1c2c(n(C)c1C)C(=O)C(=O)c1ccc(Br)cc1-2`, the AC50 is 1.01 µM.

On to `CN(C)c1ccc(/C=C/c2nc3ccccc3s2)cc1`, for which the AC50 was 0.494 µM.

In the case of `CN(Cc1ccccc1)C(=O)c1cccc(NC(=O)Cc2ccc([N+](=O)[O-])cc2)c1`, the AC50 is 16.8 µM.

For the compound `O=C(/C(=C/c1ccc(Cl)cc1)c1nc2ccccc2[nH]1)c1cccs1`, the AC50 is 2.66 µM.

Turning to `CCCn1c(C)cc(C(=O)CN2C(=O)c3ccccc3S2(=O)=O)c1C`, the AC50 was 2.98 µM.

Consider `COCCN(C(=O)COC(=O)C1CCC(C(C)(C)C)CC1)c1c(N)n(Cc2ccccc2)c(=O)[nH]c1=O` (configuration not stated), for which the AC50 was 5.15 µM.

Regarding `Cc1cccc(N2CCN(C(=S)Nc3ccc4nc(N5CCN(C)CC5)cc(C)c4c3)CC2)c1C`, the AC50 is 5.45 µM.

In the case of `COc1cc2c(cc1OC)C1C(=O)c3ccc4c(c3OC1CO2)CC(C(C)C)O4` (configuration not stated), the AC50 was below 0.26 µM.

On to `COC(=O)C1=C(c2ccc(OCc3ccccc3)cc2)C[C@@H]2CC[C@H]1N2C(=O)NCCCCc1ccccc1`, for which the AC50 was 2.8 µM.

In the case of `CC[C@H](C)[C@H]1O[C@]2(CC[C@@H]1C)C[C@@H]1C[C@@H](CC=C(C)[C@@H](O[C@H]3C[C@H](OC)[C@@H](O[C@H]4C[C@H](OC)[C@@H](O)[C@H](C)O4)[C@H](C)O3)[C@@H](C)C=CC=C3CO[C@@H]4[C@H](O)C(C)=C[C@@H](C(=O)O1)[C@]34O)O2`, the AC50 was 6.32 µM.

As to `COc1ccc(OCc2cccc(C(=O)O)c2)cc1`, the AC50 is 1.39 µM.

For the compound `Cc1cccc(CS(=O)(=O)c2ncc(Cl)c(C(=O)Nc3nnc(C(C)C)s3)n2)c1`, the AC50 was 1.62 µM.

With `COc1cc(NS(=O)(=O)c2ccc(C)cc2C)cc(OC)c1OC`, the AC50 was 4.95 µM.

These data come from PubChem BioAssay AID743417 (Broad Institute, 2014).
